Source: patent US20210038730A1, “PEPTIDE NANOFIBERS” (UNIVERSITY OF PORTSMOUTH HIGHER EDUCATION CORPORATION, priority 2018, published 2021)

Key:
[1] = In vivo pharmacokinetic study, intravenous; conditions: mice
Method: At 5 and 60 minutes, mice were killed and the blood and brain were harvested. Blood samples (0.5-0.7 mL per mouse) were collected into evacuated, sterile, spray coated with tripotassium ethylenediamine tetraacetic acid (3.6 mg), medical grade PET tubes. […] Brain was weighted and homogenised with ice-cold PBS (1×, 7.4) using a 3 mL glass homogeniser. Plasma (100 μL) and brain homogenate (˜800 μL) were extracted with equal volumes of ice-cold acetonitrile three times and samples were dried using a centrifugal concentrator (SPD1010 SpeedVac System, ThermoSavant, Renfrewshire, United Kingdom) under vacuum over 2 hours and 4 hours respectively. Samples were orbitally agitated using a SciQuip Microplate Shaker attached to a tube adapter for 1.5-2 mL tubes (10 mm) for 10 minutes prior being centrifuged at 8,000 rpm for 5 minutes. Supernatants were pipetted in 0.2 mL amber vials and was quantified by reverse phase-HPLC. Analysis was conducted on Onyx Monolithic C18 column (4.6 mm×10+100 mm, 5 μm pore size) with a gradient method (Table 13) using an Agilent 1200 Series HPLC system (Agilent Technologies, Cheadle, UK). […] Injection volume was 40 μL, and the detection was performed at 220 nm and 280 nm.

[2] = Enzymatic stability in U-87 MG cell homogenates; conditions: analyte in brackets of label
Method: Fresh blood, obtained from adult male Wistar rats, was collected in sterile the 170 I.U. lithium heparin-coated tubes (Vacutainer, BD Bioscience, UK). Blood was centrifuged immediately at 2,000 g for 15 minutes (4° C.) and supernatant was collected and diluted to 50% (v/v) with PBS. Livers and brains were obtained from adult male Wistar rats, and the tissues were blotted to dryness, weighed, sliced into pieces, and homogenised with ice-cold PBS (in 2 mL of buffer g^−1 of tissue) using the glass homogeniser. Then, tissue homogenates were centrifuged at 4,300 g for 1 hour (4° C.) and the supernatants collected. Glioblastoma cell homogenates were prepared using U-87 MG cells. Cells were cultured in Eagle's Minimum Essential Medium (EMEM) supplemented with 10% (v/v) heat-inactivated fetal bovine serum (FBS), 1% (v/v) of non-essential amino acids (NEAA) and 1 mM of sodium pyruvate in T75 flasks with a surface area of 75 cm^2 and maintained in a humidified atmosphere of 5% CO2 at 37° C. Breast cancer cell homogenates were prepared using MDA-MB-231 cells. Cells were cultured in Dulbecco's Modified Eagle Medium (DMEM) supplemented with high levels of glucose (4.5 g/L), 10% (v/v) heat-inactivated fetal bovine serum (FBS), 1% (v/v) of non-essential amino acids (NEAA) and penicillin and streptomycin (500 units/mL) in T75 flasks with a surface area of 75 cm^2 and maintained in a humidified atmosphere of 5% CO2 at 37° C. Media was changed for both cell lines every 3 to 4 days. After reaching confluence, cells were washed twice with Hank's Balanced Salt Solution (HBSS) and incubated with ˜2 mL of TrypLE Enzyme at 37° C. for ˜3 minutes. Then, complete media were added, and cells were centrifuged at 1,000 rpm for 5 minutes in C-28A centrifuge (Boeco, Germany). […] Total protein concentration in the homogenates was determined using the Bradford assay with bovine serum albumin as a standard. […] Samples were vortexed for 15 minutes, centrifuged for 15 minutes at 12,000 rpm, and the supernatants were collected and analysed by RP-HPLC.

**Q.** Which tolerability ([1]; intravenous 35 mg kg^−1, no immediate signs of toxicity, no gross alterations in liver, spleen, lungs, kidneys) does the source give for `CCCCCCCCCCCCCCCC(=O)Oc1ccc(C[C@H](NC(=O)[C@H](CO)NC(=O)[C@H](Cc2c[nH]c3ccccc23)NC(=O)[C@H](Cc2c[nH]cn2)NC(=O)[C@@H](N)CCC(=O)O)C(=O)NCC(=O)N[C@@H](CC(C)C)C(=O)N[C@@H](CCCNC(=N)N)C(=O)N2CCC[C@H]2C(=O)NCC(N)=O)cc1` [TPGnRH, Tyrosine (O-Palmitoyl)-Glu-GnRH] here?
**A.** well tolerated

**Q.** And the dose in blood ([1]; intravenous, after 1 hour)?
**A.** ~6 % of dose

**Q.** And the k [2]?
**A.** 0.1781 min⁻¹
